The values below come from patent US20040049072A1, “RXR modulators with improved pharmacologic profile” (priority 1999, published 2004).

pKi: −log10 of the molar value. Like-named read-outs stand apart in the source and are kept apart here.

The target in data set [1] is T1, (Homo sapiens, UniProt P19793).
T1 sequence (P19793 1-462): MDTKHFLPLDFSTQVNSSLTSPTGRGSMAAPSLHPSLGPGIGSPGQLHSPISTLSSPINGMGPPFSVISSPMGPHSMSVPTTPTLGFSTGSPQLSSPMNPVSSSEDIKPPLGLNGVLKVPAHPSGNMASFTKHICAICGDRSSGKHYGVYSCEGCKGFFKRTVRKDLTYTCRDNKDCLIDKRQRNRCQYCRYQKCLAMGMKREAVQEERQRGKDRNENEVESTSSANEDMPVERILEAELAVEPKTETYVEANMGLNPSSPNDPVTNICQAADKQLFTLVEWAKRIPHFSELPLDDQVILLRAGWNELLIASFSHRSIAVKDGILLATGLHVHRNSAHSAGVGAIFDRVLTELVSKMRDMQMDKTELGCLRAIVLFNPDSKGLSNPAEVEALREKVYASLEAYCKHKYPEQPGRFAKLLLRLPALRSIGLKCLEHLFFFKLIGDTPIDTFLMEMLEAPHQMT
Briefly: RXR homodimer co-transfection assay in CV-1 cells. It is filed as cell-based. Particulars: CV-1. From the text:
In the co-transfection assay, cloned cDNA for one or more IRs (e.g., human RARα, RXRα, or PPARγ), alone or in combination (i.e. for heterodimer assays) under the control of a constitutive promoter (e.g., the SV 40, RSV or CMV promoter) is introduced by transfection (a procedure to introduce exogenous genes into cells) into a background cell substantially devoid of endogenous IRs. These introduced gene(s) direct the recipient cells to make the IR protein(s) of interest. A further gene is also introduced (co-transfected) into the same cells in conjunction with the IR gene(s). This further gene, comprising the cDNA for a reporter protein, such as firefly luciferase (LUC), controlled by an appropriate hormone responsive promoter containing a hormone response element (HRE). This reporter plasmid functions as a reporter for the transcriptional-modulating activity of the target IR(s). Thus, the reporter acts as a surrogate for the products (mRNA then protein) normally expressed by a gene under control of the target receptor(s) and their native hormone(s).
Exposing the transfected cells to an agonist ligand compound increases reporter activity in the transfected cells. This activity can be conveniently measured, e.g., by increasing luciferase production and enzymatic activity, which reflects compound-dependent, IR-mediated increases in reporter transcription. […] Increasing concentrations of an antagonist will decrease the reporter signal (e.g., luciferase production). The co-transfection assay is therefore useful to detect both agonists and antagonists of specific IRs. Furthermore, it determines not only whether a compound interacts with a particular IR, but whether this interaction mimics (agonizes) or blocks (antagonizes) the effects of native or synthetic regulatory molecules on target gene expression, as well as the specificity and strength of this interaction.
The receptor expression plasmid was cotransfected along with a reporter plasmid at 50 ng/well, the internal control plasmid pRS-β-Gal at 50 ng/well and filler DNA, pGEM, at 90 ng/well.
Six hours after transfection, media was removed and the cells were washed with phosphate-buffered saline (PBS). Media containing compounds of the present invention in concentrations ranging from 10^−10 to 10^−5 M were added to the cells. […] Retinoids were dissolved in dimethylsulfoxide for use in the transcriptional activation assays. Two to three replicates were used for each sample. Transfections and subsequent procedures were performed on a Biomek 1000 automated workstation.
After 40 hours, the cells were washed with PBS, lysed with a detergent-based buffer and assayed for LUC and β-Gal activities using a luminometer or spectrophotometer, respectively. For each replicate, the normalized response (NR) was calculated as: […]
The mean and standard error of the mean (SEM) of the NR were calculated. Data were plotted as the response of the compound compared to the reference compounds over the range of the dose-response curve. […] Antagonist activity was determined by testing the amount of LUC expression in the presence of the RXR agonists described above at the EC50 concentration for such known compounds. […] In addition, the efficacy of antagonists was determined as a function (%) of maximal inhibition.

The subject of a further data set is db/db mouse. Kind of data set: db/db mouse study (rodent model of Type II diabetes). Particulars: for inhibition in vivo at 30 mg/kg: Mus musculus, po, 168 h, read-out: db/db mouse Glu. (D7); for db/db mouse Trigs. (D3): plasma triglycerides as % of control values, day 3, 30 mg/kg/day.
In the next data set the target is T2, RXRα:RAR heterodimer (Homo sapiens, UniProt P19793).
T2 construct: expressed in transfected cells; host or cells: CV-1 cells
T2 sequence (P19793 1-462): T1 sequence (P19793 1-462)
Briefly: RXR:RAR heterodimer co-transfection assay in CV-1 cells. It is filed as cell-based. Particulars: CV-1; read-out: RXR:RAR CV-1 (%) Ag. The procedure:
For determination of agonist activity in the context of the RXR:RAR heterodimer or the RXR:PPARγ heterodimer, media containing compounds of the present invention in concentrations ranging from 10^−10 to 10^−5 M were added to the cells.
Compounds of the present invention were also tested for the ability to synergize with a PPARγ agonist in the context of an RXR heterodimer. […] Efficacy of the compounds of the present invention in the agonist and synergy assays was calculated as the maximum response obtained over the range of the dose response curve relative to the maximum response obtained by the reference agonist. Antagonist efficacy was determined as a function (%) of maximal inhibition.
However, when RAR is occupied, typical RXR agonists activate the heterodimer. […] To examine the effects of the compounds of the present invention on the transcriptional properties of the RXR:RAR heterodimer, a heterodimer cotransfection assay as described above was employed.

In the next data set the target is T3, RXRα (Homo sapiens, UniProt P19793).
T3 sequence (P19793 1-462): T1 sequence (P19793 1-462)
Kind of data set: RXRα binding (competition with tritiated LGD1069). As to conditions: Table 2; from IC50 by Cheng-Prussof equation, tritiated LGD1069; read-out: Bind RXRα Ki. The procedure:
Non-specific binding was defined as that binding remaining in the presence of 500 nM of the appropriate unlabelled compound. At the end of the incubation period, bound ligand was separated from free. The amount of bound tritiated retinoid was determined by liquid scintillation counting of an aliquot (700 μL) of the supernatant fluid or the hydroxylapatite pellet.
After correcting for non-specific binding, IC50 values were determined. […] The IC50 value was determined graphically from a log-logit plot of the data. The Ki values were determined by application of the Cheng-Prussof equation to the IC50 values, the labeled ligand concentration and the Kd of the labeled ligand.

Data set [2] deals with mice transgenic for the human apolipoprotein A-I gene. Kind of data set: transgenic mice carrying the human apo A-I gene (HDL cholesterol, triglycerides). The data set is classed as in vivo, mouse. From the text:
Mice transgenic for the human apolipoprotein A-I gene (obtained from Jackson Laboratory) were used to evaluate PPARalpha mediated effects on HDL cholesterol. The mice were handled as described above for db/db mice, except that they were fed Purina 5001.

A further data set concerns Crl:CD-1 (ICR)BR mice. Kind of data set: teratogenicity in pregnant Crl:CD-1 (ICR)BR mice. The data set is classed as in vivo, mouse. Particulars: daily oral gavage, gestation days 6-18; L6 30 or 200 mg/kg-day, LG100268 30 or 100 mg/kg-day. The procedure: Teratogenicity is commonly evaluated by examination of fetuses obtained by cesarean section from pregnant mice dosed daily with test compound between gestation days 6-18. We have conducted a blinded study using time-mated female Crl:CD-1® (ICR)BR mice to evaluate potential developmental toxicity (teratogenicity) following administration of L6 at either 30 or 200 mg/kg-day by daily oral gavage for the specified […] of gestation. Each test group consisted of 7-8 pregnant females and produced approx. 100 live fetuses per test group. […] The highest dose of L6 tested (200 mg/kg-day) is twice the dose required to produce maximum antidiabetic activity in db/db mice (100 mg/kg-day).

[3] abbreviates: rodent models of Type II Diabetes.

With `CC(/C=C/C1=C(c2cc(C(C)C)cc(C(C)C)c2OCCCF)CCC1)=C\C(=O)O` [Compound L14], the Emax in data set [1] (Table 2, first RXR:RAR head (c4), maximal repression (100%) in presence of 32 nM LGD1069 (RXR:RXR), read-out: RXR:RAR CV-1 (%) Antag.) is 80%; in data set [1] (read-out: RXR:RAR CV-1 (%) Ag.), 3%; at RXRα:RAR heterodimer it was 2%. Also, the inhibition in vivo at 30 mg/kg in the data set with db/db mouse amounted to 45%. Moreover, in the data set with db/db mouse, the “db/db mouse Trigs. (D3)” value was 138%. Moreover, the “insulin sensitizing activity with thyroid axis suppression and triglyceride elevations” value with db/db mouse (setting [3]) was “maintain the desirable insulin sensitizing activity and minimize both the suppression of the thyroid axis and triglyceride elevations”. Further, on RXRα, the pKi is 8.30.
On to `Cc1cc2c(cc1C1(c3ccc(C(=O)O)cn3)CC1)C(C)(C)CCC2(C)C` [LG100268, 6-[1-(3,5,5,8,8-pentamethyl-5,6,7,8-tetrahydronaphthalen-2-yl)cyclopropyl]nicotinic acid, reference compound], for which the triglycerides result in data set [2] was “substantially raise triglycerides”. Further, in the data set on db/db mouse, the inhibition in vivo at 30 mg/kg worked out at 73% and the “db/db mouse Trigs. (D3)” value is 195%. For the same compound, in the data set on db/db mouse (plasma glucose, % correction relative to lean values, day 14, 100 mg/kg daily oral gavage), the “db/db mouse Glu. (D 14)” value was 73%. The “db/db mouse Trigs. (D 14)” value in the data set on db/db mouse (plasma triglycerides, % correction relative to lean values, day 14, NC = no change) worked out at 82%. In addition, in the data set on db/db mouse (setting [3]), the “effect on the thyroid hormone axis” value is “suppress the thyroid hormone axis”, the “effect on triglycerides” value is on record as “raise triglycerides” and the “insulin sensitizing activity / effect on glucose” value is recorded as “efficacious insulin sensitizers”. In addition, the “db/db mouse T4 (D 3)” value in the data set on db/db mouse (total T4 as % of obese control values, day 3, NC = no change) is on record as 43%. In the data set with Crl:CD-1 (ICR)BR mice, the teratogenicity in fetuses entry is recorded as “Teratogenicity was observed”.
